Data taken from patent publication US5063152A, “Synthetic peptidic substrate for determination of trypsin and α1” (Nitto Boseki Co., Ltd., priority 1985, dated 1991).
Values joined by “and” are separate entries in the source; they are usually repeats but may differ in a detail not shown here. Identical values can stand only once. Square brackets hold non-standard residues; d marks the D form. Peptide text beside a SMILES is read from it. * marks the point of attachment. pNA = O=[N+]([O-])c1ccc(N*)cc1; Cbz = O=C(OCc1ccccc1)*

Tests used:
[1] = target: T1, Trypsin (Try) (Bos taurus, UniProt P00760); assay: substrate specificity test, reaction with trypsin; assay type: biochemical, Bovine; conditions: for measured optical density (absorbance), trypsin: initial substrate concentration 2 mmol/l, 37° C., 5 minutes; for relative reactivity of substrate with trypsin: reactivity of PS-1188N taken as 100, initial substrate concentration 2 mmol
T1 construct: purchased Worthington
T1 sequence (P00760 24-246): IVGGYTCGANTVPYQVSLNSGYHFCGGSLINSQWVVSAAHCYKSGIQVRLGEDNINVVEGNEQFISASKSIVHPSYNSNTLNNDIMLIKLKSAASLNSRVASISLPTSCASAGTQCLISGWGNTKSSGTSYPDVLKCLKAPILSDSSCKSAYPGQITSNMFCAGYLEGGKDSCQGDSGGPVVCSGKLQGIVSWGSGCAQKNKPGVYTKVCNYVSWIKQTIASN
Method: (§1) The synthetic peptides obtained in Examples 1 and 2 were subjected to a substrate specificity test by reacting with various enzymes under the following conditions.
(§2) 1) substrate solution: 10 mmol/l (concentration)
(§3) 2) buffer solution: tris-HCl buffer
(§4) Concentrations of NaCl, and CaCl2 and pH (at 25° C.) were adjusted as shown in Table 2 depending on enzymes to be reacted: […]
(§5) 4) Reaction stopper solution in the case of pNA: 10% acetic acid
(§6) 5) Color producing reagent for CHA: sodium pentacyanoamine ferroate
(§7) The buffer solution in an amount of 0.3 ml and 0.1 ml of an enzyme solution were placed in a test tube made of hard glass treated with silicon or a test tube made of a plastic (polystyrene) and preheated for 5 minutes in a constant temperature bath maintained at 37° C. Then, 0.1 ml of a substrate solution was added to the test tube and incubated at 37° C. for just 5 minutes. Subsequently, 2.0 ml of the reaction stopper solution (in the case of pNA) or the color producing reagent (in the case of CHA) was added to the reaction solution to terminate the enzymatic reaction. After allowing to stand at 37° C. for 10 minutes, absorbance (optical density) at 405 nm (in the case of pNA) or at 700 nm (in the case of coupled CHA) was measured. The initial substrate concentration was 2 mmol/l.

[2] = target: T2, Thrombin (TH) (Bos taurus, UniProt P00735); assay: substrate specificity test, reaction with thrombin; assay type: biochemical, Bovine; conditions: for measured optical density (absorbance), thrombin: initial substrate concentration 2 mmol/l, 37° C., 5 minutes; for relative reactivity in the case of thrombin: Table 1, PS-1188N = 100; for relative reactivity of substrate with thrombin: reactivity of PS-1188N taken as 100, initial substrate concentration 2 mmol
T2 construct: Thrombin; purchased Mochida Pharmaceutical Co., Ltd
Method: as §1, §2, §3, §4, §5, §6, §7

[3] = target: T3, Plasmin (PL) (Homo sapiens, UniProt P00747); assay: substrate specificity test, reaction with plasmin; assay type: biochemical; conditions: for measured optical density (absorbance), plasmin: initial substrate concentration 2 mmol/l, 37° C., 5 minutes; for relative reactivity in the case of plasmin: Table 1, PS-1188N = 100; for relative reactivity of substrate with plasmin: reactivity of PS-1188N taken as 100, initial substrate concentration 2 mmol
T3 construct: Plasmin Human; purchased Green Cross Corp
T3 sequence (P00747 581-810 limits assumed): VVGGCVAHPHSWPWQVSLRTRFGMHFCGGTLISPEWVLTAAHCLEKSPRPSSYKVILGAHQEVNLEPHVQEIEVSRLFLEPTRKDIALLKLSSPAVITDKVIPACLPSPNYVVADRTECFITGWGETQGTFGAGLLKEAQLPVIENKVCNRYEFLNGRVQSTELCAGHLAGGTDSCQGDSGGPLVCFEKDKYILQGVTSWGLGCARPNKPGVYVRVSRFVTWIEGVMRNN
T3 sequence (P00747 97-580 partner limits assumed): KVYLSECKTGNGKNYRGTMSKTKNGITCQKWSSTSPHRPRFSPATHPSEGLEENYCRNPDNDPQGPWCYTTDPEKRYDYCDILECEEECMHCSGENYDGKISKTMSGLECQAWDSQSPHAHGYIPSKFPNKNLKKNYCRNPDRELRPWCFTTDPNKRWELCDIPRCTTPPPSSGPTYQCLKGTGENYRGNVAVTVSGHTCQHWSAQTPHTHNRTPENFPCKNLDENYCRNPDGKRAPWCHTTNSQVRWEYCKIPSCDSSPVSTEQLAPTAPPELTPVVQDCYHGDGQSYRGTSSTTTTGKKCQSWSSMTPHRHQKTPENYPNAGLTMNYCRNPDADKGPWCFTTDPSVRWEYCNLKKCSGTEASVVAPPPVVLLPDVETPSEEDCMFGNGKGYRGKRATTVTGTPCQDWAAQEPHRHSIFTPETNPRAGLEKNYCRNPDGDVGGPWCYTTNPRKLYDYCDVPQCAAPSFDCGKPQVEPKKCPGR
Method: as §1, §2, §3, §4, §5, §6, §7

[4] = target: T4, Factor Xa (FXa) (Bos taurus, UniProt P00743); assay: substrate specificity test, reaction with factor Xa; assay type: biochemical, Bovine; conditions: for measured optical density (absorbance), factor Xa: initial substrate concentration 2 mmol/l, 37° C., 5 minutes; for relative reactivity in the case of factor Xa: Table 1, PS-1188N = 100; for relative reactivity of substrate with factor Xa: reactivity of PS-1188N taken as 100, initial substrate concentration 2 mmol
T4 construct: Factor Xa; purchased Sigma Chem. Co
T4 sequence (P00743 234-492 limits assumed): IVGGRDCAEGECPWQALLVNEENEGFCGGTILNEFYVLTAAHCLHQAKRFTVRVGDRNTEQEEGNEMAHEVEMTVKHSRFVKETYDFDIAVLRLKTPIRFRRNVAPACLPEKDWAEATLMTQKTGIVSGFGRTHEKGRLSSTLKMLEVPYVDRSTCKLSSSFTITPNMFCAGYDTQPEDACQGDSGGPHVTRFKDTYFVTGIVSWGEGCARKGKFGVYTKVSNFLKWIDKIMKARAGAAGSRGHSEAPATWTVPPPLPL
T4 sequence (P00743 41-180 partner limits assumed): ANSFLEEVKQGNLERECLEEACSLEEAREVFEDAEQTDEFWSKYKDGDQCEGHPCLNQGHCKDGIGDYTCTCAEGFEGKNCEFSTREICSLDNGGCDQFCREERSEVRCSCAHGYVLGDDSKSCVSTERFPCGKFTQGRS
Method: as §1, §2, §3, §4, §5, §6, §7

[5] = target: T5, Kallikrein (KL) (Sus scrofa, UniProt P00752); assay: substrate specificity test, reaction with kallikrein; assay type: biochemical, Porcine; conditions: for measured optical density (absorbance), kallikrein: initial substrate concentration 2 mmol/l, 37° C., 5 minutes; for relative reactivity in the case of kallikrein: Table 1, PS-1188N = 100; for relative reactivity of substrate with kallikrein: reactivity of PS-1188N taken as 100, initial substrate concentration 2 mmol
T5 construct: purchased Sigma Chem. Co
T5 sequence (P00752 8-246): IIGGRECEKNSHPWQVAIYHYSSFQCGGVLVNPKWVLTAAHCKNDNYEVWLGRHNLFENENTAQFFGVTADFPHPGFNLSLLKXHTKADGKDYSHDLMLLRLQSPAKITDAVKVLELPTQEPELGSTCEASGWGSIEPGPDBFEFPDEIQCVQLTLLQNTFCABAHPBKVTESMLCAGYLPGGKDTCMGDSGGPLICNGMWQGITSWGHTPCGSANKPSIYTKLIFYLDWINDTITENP
Method: as §1, §2, §3, §4, §5, §6, §7

[6] = target: T6, Urokinase (UK) (Homo sapiens, UniProt P00749); assay: substrate specificity test, reaction with urokinase; assay type: biochemical; conditions: initial substrate concentration 2 mmol/l, 37° C., 5 minutes
T6 construct: purchased Mochida Pharmaceutical Co., Ltd
Method: as §1, §2, §3, §4, §5, §6, §7

## CC(C)C[C@H](NC(=O)[C@H]1CCCN1)C(=O)N[C@@H](CCCCN)C(=O)Nc1ccc(O)c(C(=O)O)c1 [PS-1188, H-D -Pro-Leu-Lys-CHA]
[1]; 700 nm (coupled CHA)
  measured optical density (absorbance), trypsin: 0.314
[1]
  relative reactivity of substrate with trypsin: 86
[2]; 700 nm (coupled CHA)
  measured optical density (absorbance), thrombin: 0.0
[2]
  relative reactivity in the case of thrombin: 0%
  relative reactivity of substrate with thrombin: 0
[3]; 700 nm (coupled CHA)
  measured optical density (absorbance), plasmin: 0.008
[3]
  relative reactivity in the case of plasmin: 3%
  relative reactivity of substrate with plasmin: 3
[4]; 700 nm (coupled CHA)
  measured optical density (absorbance), factor Xa: 0.006
[4]
  relative reactivity in the case of factor Xa: 37%
  relative reactivity of substrate with factor Xa: 37
[5]; 700 nm (coupled CHA)
  measured optical density (absorbance), kallikrein: 0.002
[5]
  relative reactivity in the case of kallikrein: 2%
  relative reactivity of substrate with kallikrein: 2
[6]; 700 nm (coupled CHA)
  measured optical density (absorbance), urokinase: 0.001

## CC(C)C[C@H](NC(=O)[C@H]1CCCN1)C(=O)N[C@@H](CCCCN)C(=O)Nc1ccc([N+](=O)[O-])cc1 [PS-1188N, H-D -Pro-Leu-Lys-pNA] (H-[dP]-Leu-Lys-pNA)
[1]; 405 nm (pNA)
  measured optical density (absorbance), trypsin: 0.160
[1]
  relative reactivity of substrate with trypsin: 100
[2]; 405 nm (pNA)
  measured optical density (absorbance), thrombin: 0.003
[2]
  relative reactivity of substrate with thrombin: 100
[3]; 405 nm (pNA)
  measured optical density (absorbance), plasmin: 0.134
[3]
  relative reactivity of substrate with plasmin: 100
[4]; 405 nm (pNA)
  measured optical density (absorbance), factor Xa: 0.007
[4]
  relative reactivity of substrate with factor Xa: 100
[5]; 405 nm (pNA)
  measured optical density (absorbance), kallikrein: 0.032 and 0.039
[5]
  relative reactivity of substrate with kallikrein: 100
[6]; 405 nm (pNA)
  measured optical density (absorbance), urokinase: 0.0

## CC(C)[C@H](NC(=O)OCc1ccccc1)C(=O)NCC(=O)N[C@@H](CCCNC(=N)N)C(=O)Nc1ccc([N+](=O)[O-])cc1 [CHR-TRY, Z-Val-Gly-Arg-pNA] (Cbz-Val-Gly-Arg-pNA)
[1]; 405 nm (pNA)
  measured optical density (absorbance), trypsin: 2.601
[1]
  relative reactivity of substrate with trypsin: 1626
[2]; 405 nm (pNA)
  measured optical density (absorbance), thrombin: 0.066
[2]
  relative reactivity in the case of thrombin: 2200%
  relative reactivity of substrate with thrombin: 2200
[3]; 405 nm (pNA)
  measured optical density (absorbance), plasmin: 0.057
[3]
  relative reactivity in the case of plasmin: 43%
  relative reactivity of substrate with plasmin: 43
[4]; 405 nm (pNA)
  measured optical density (absorbance), factor Xa: 0.148
[4]
  relative reactivity in the case of factor Xa: 2114%
  relative reactivity of substrate with factor Xa: 2114
[5]; 405 nm (pNA)
  measured optical density (absorbance), kallikrein: 0.029
[5]
  relative reactivity in the case of kallikrein: 74%
  relative reactivity of substrate with kallikrein: 74
[6]; 405 nm (pNA)
  measured optical density (absorbance), urokinase: 0.112
